Measured values reported in patent US4931447A, “Cycloalkylamides of (8β)-1-alkyl-6-(substituted) ergolines” (Eli Lilly and Company, priority 1989, dated 1990).

Legend:
5HT2 Receptors = target: T1, 5HT2 Receptors (Rattus norvegicus, UniProt P14842); assay: Apparent antagonist dissociation constant (KB) at 5HT2 receptors, serotonin-induced contraction of isolated rat external jugular vein; assay type: cell-based, rat (male Wistar)
T1 construct: from tissue; host or cells: rat external jugular vein (isolated, male Wistar)
T1 sequence (P14842 whole entry): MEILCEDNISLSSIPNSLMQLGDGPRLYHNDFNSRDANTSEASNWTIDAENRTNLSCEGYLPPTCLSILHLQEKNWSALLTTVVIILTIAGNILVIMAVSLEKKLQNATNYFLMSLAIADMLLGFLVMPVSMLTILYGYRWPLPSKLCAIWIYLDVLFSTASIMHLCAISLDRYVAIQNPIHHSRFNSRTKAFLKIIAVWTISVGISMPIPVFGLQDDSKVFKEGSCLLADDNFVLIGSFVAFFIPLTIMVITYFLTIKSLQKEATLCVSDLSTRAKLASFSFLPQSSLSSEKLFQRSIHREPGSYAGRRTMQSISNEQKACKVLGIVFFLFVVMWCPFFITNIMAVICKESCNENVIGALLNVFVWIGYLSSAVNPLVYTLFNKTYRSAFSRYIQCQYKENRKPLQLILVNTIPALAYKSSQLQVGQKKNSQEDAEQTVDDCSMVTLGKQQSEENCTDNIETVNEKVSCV
Source text: Male Wistar rats (about 150-300 gram weight) were killed and their external jugular veins and thoracic aortas dissected free of connective tissue, cannulated in situ and placed in a modified Krebs' bicarbonate buffer in a suitable tissue bath. Two L-shaped 30-gauge stainless-steel hypodermic needles were inserted in each cannula and the dissected vessels gently pushed onto the needles. One needle was attached with thread to a stationary glass rod and the other to the transducer. [The procedure employed was that described by Hooker, Calkins and Fleisch, Blood Vessels, 14, 1, (1977) for use with circular smooth muscle preparations.]
The modified Krebs' bicarbonate buffer was composed of the following (concentrations in millimoles): sodium chloride, 118.2; potassium chloride, 4.6; calcium chloride dihydrate, 1.6; potassium dihydrogenphosphate, 1.2; magnesium sulfate, 1.2; dextrose, 10.0; sodium bicarbonate, 24.8; and water q.s. to 1000 g. The tissue baths were maintained at 37° C. and were aerated with 95% oxygen: 5% carbon dioxide (v:v). An initial optimum resting force of 1 g and 4 g was applied to the jugular vein and aorta, respectively. Isometric contractions were recorded as changes in grams of force on a Beckman Dynograph with Statham UC-3 transducers and microscale accessory attachment. Tissues were allowed to equilibrate 1 to 2 hours before exposure to drugs. Control responses to serotonin in the jugular vein and to norepinephrine in the aorta were obtained. The vessels were then incubated with appropriate concentrations of the test compound for one hour. Responses to serotonin or to norepinephrine were then repeated in the presence of the test compound. Contraction to serotonin was evaluated in the jugular vein since this tissue produces marked responses to serotonin in the absence of alpha receptors. See Cohen and Wiley, J. Pharm. Exp. Ther., 205, 400 (1978). Alpha receptor antagonist activity was evaluated in the aorta.
Apparent antagonist dissociation constants were determined for each concentration of the test compound according to the following equation: [formula] wherein [B] is the concentration of the antagonist and the dose ratio is the ED50 of the agonist in the presence of the antagonist divided by the control ED50. […] The -log KB values obtained for representative sensitive compounds of this invention and are given below in Table 1. ln the Table, column I provides the Example Number of the compound evaluated in the screen; columns 2-6, the identity of the compound evaluated in the screen when taken with the structure provided; and column 7, the apparent dissociation constant for the test compound.

Male Rats [1] = assay: Copulatory performance of male rats (Non-Maters and Non-Ejaculators), subcutaneous administration, percent responding (Table II); assay type: in vivo, rat (male Sprague-Dawley)
Protocol: (§1) Adult male rats of the Sprague-Dawley strain were used in these studies. The sexual behavior evaluations were conducted at 2-week intervals beginning at 6 months of age and ending at 12 months of age. During the initial screening process, the male rats of various levels of sexual performance were selected for compound testing. […] Prior to treatment with a drug solution, each male rat was required to have at least two consecutive vehicle tests with similar sexual performance. Following each compound testing, additional vehicle tests were performed.
(§2) The mating tests were performed during the dark phase of the lighting cycle using red light illumination. Each behavioral test was initiated with the introduction of a receptive female rat into the arena and was terminated either 30 minutes later or immediately following the first postejaculatory mount. The indiees of mating performance that were evaluated for the rats capable of ejaculation included mount latency (the time interval from the introduction of the female rat to the first mount); intromission latency (the time interval from the introduction of the female rat to the first intromission); ejaculatory latency (the time interval from intromission to ejaculation); postejaculatory interval (the time from ejaculation to the next mount); mount frequency (the total number of mounts with or without intromission prior to ejaculation); intromission frequency (the number of mounts with intromission prior to ejaculation); intromission efficiency (the intromission frequency divided by the mount frequency); copulatory rate (the number of mounts per minute); copulatory frequency (the number of mounts prior to ejaculation); and copulatory efficiency (the number of mounts with intromission divided by the total number of mounts).
(§3) Each male rat was given a solution containing either the vehicle alone in water or the compound of Example 1, (8β)-N-cyclohexyl-1-isopropyl-6-methylergoline-8-carboxamide, in the same vehicle. Vehicle was made of 1 mM (millimolar) acetic acid and 1 mM ascorbic acid.
(§4) The results of these studies are set forth below in Tables II-VII. In the Tables "N" is the number of animals used to generate the data, the average of which is provided. The specific description of the test performed is set forth in the heading of the Tables.

Male Rats [2] = assay: Copulatory performance of male rats, subcutaneous administration (Tables III, IV); assay type: in vivo, rat (male Sprague-Dawley); settings: for Postejaculatory Latency / Ejaculatory Latency: 30 min before test; for Copulatory Rate: number of mounts per minute
Protocol: as §1, §2, §3, §4
Control values were obtained from the same rats 2 weeks earlier following
All injections were made 30 minutes prior to testing

Male Rats [3] = assay: Copulatory performance of male rats after various time periods following subcutaneous administration at 10 mcg/kg (Table VII); assay type: in vivo, rat (male Sprague-Dawley); settings: 10 mcg/kg s.c.
Protocol: as §1, §2, §3, §4
Of Example 1 at 10 mcg/kg After Various Time Periods

## CC(C)n1cc2c3c(cccc31)[C@H]1C[C@@H](C(=O)NC3CCCCC3)CN(C)[C@@H]1C2 [Example 1, (8β)-N-Cyclohexyl-1-isopropyl-6-methylergoline-8-carboxamide]
5HT2 Receptors
  Kb: 0.214 nM
Male Rats [1]; 1 ng/kg s.c., 1/9 responding
  Non-Ejaculators Percent Responding: 11.1%
Male Rats [1]; 1 ng/kg s.c., 1/16 responding
  Non-Maters Percent Responding: 6.3%
Male Rats [1]; 10 ng/kg s.c., 4/14 responding
  Non-Maters Percent Responding: 28.6%
Male Rats [1]; 10 ng/kg s.c., 9/20 responding
  Non-Ejaculators Percent Responding: 45.0%
Male Rats [1]; 100 ng/kg s.c., 6/11 responding
  Non-Ejaculators Percent Responding: 54.5%
Male Rats [1]; 100 ng/kg s.c., 8/14 responding
  Non-Maters Percent Responding: 57.1%
Male Rats [1]; 1000 ng/kg s.c., 7/12 responding
  Non-Maters Percent Responding: 58.3%
Male Rats [1]; 1000 ng/kg s.c., 9/16 responding
  Non-Ejaculators Percent Responding: 56.3%
Male Rats [1]; 10000 ng/kg s.c., 6/11 responding
  Non-Maters Percent Responding: 54.5%
Male Rats [1]; 10000 ng/kg s.c., 11/18 responding
  Non-Ejaculators Percent Responding: 61.1%
Male Rats [2]; 0.01 mcg/kg s.c., N = 14, control 366.9 ± 15.6
  Postejaculatory Latency: 366.8 ± 19.8 s
Male Rats [2]; 0.01 mcg/kg s.c., N = 14, control 602.6 ± 47.4
  Ejaculatory Latency: 530.4 ± 64.6 s
Male Rats [2]; 0.01 mcg/kg s.c., N = 14, control 0.59 ± 0.05
  Copulatory Efficiency: 0.56 ± 0.03
Male Rats [2]; 0.01 mcg/kg s.c., N = 14, control 20.1 ± 2.4
  Mount Frequency: 21.4 ± 2.0
Male Rats [2]; 0.01 mcg/kg s.c., N = 14, control 2.1 ± 0.2
  Copulatory Rate: 2.4 ± 0.3
Male Rats [2]; 0.10 mcg/kg s.c., N = 15, control 367.1 ± 18.7
  Postejaculatory Latency: 355.9 ± 13.2 s
Male Rats [2]; 0.10 mcg/kg s.c., N = 15, control 747.9 ± 61.8, significant (*)
  Ejaculatory Latency: 532.9 ± 58.0 s
Male Rats [2]; 0.10 mcg/kg s.c., N = 15, control 0.38 ± 0.03, significant (*)
  Copulatory Efficiency: 0.54 ± 0.04
Male Rats [2]; 0.10 mcg/kg s.c., N = 15, control 25.0 ± 2.3
  Mount Frequency: 22.9 ± 2.6
Male Rats [2]; 0.10 mcg/kg s.c., N = 15, control 2.0 ± 0.2, significant (*)
  Copulatory Rate: 2.7 ± 0.3
Male Rats [2]; 1.0 mcg/kg s.c., N = 11, control 371.2 ± 19.8
  Postejaculatory Latency: 357.3 ± 9.5 s
Male Rats [2]; 1.0 mcg/kg s.c., N = 11, control 749.5 ± 59.1, significant (*)
  Ejaculatory Latency: 584.8 ± 89.4 s
Male Rats [2]; 1.00 mcg/kg s.c., N = 11, control 0.53 ± 0.04, significant (*)
  Copulatory Efficiency: 0.67 ± 0.03
Male Rats [2]; 1.00 mcg/kg s.c., N = 11, control 23.1 ± 2.4
  Mount Frequency: 21.4 ± 1.7
Male Rats [2]; 1.00 mcg/kg s.c., N = 11, control 1.9 ± 0.2, significant (*)
  Copulatory Rate: 2.4 ± 0.2
Male Rats [2]; 10.0 mcg/kg s.c., N = 11, control 368.3 ± 23.0
  Postejaculatory Latency: 333.9 ± 10.9 s
Male Rats [2]; 10.0 mcg/kg s.c., N = 11, control 850.4 ± 99.2, significant (*)
  Ejaculatory Latency: 454.1 ± 78.4 s
Male Rats [2]; 10.0 mcg/kg s.c., N = 11, control 0.49 ± 0.05, significant (*)
  Copulatory Efficiency: 0.57 ± 0.04
Male Rats [2]; 10.0 mcg/kg s.c., N = 11, control 23.2 ± 2.1
  Mount Frequency: 18.5 ± 2.4
Male Rats [2]; 10.0 mcg/kg s.c., N = 11, control 1.7 ± 0.2, significant (*)
  Copulatory Rate: 2.6 ± 0.4
Male Rats [2]; 100.0 mcg/kg s.c., N = 16, control 373.3 ± 22.8
  Postejaculatory Latency: 325.6 ± 16.0 s
Male Rats [2]; 100.0 mcg/kg s.c., N = 16, control 731.8 ± 44.5, significant (*)
  Ejaculatory Latency: 463.6 ± 46.6 s
Male Rats [2]; 100.0 mcg/kg s.c., N = 16, control 0.49 ± 0.03, significant (*)
  Copulatory Efficiency: 0.59 ± 0.04
Male Rats [2]; 100.0 mcg/kg s.c., N = 16, control 24.8 ± 2.3
  Mount Frequency: 21.3 ± 1.4
Male Rats [2]; 100.0 mcg/kg s.c., N = 16, control 2.1 ± 0.2, significant (*)
  Copulatory Rate: 2.9 ± 0.3
Male Rats [3]; 0.5 hours, N = 11, control 1.7 ± 0.2, significant (*)
  Copulatory Rate: 2.6 ± 0.4 mounts/minute
Male Rats [3]; 0.5 hours, N = 11, control 368.3 ± 23.0
  Postejaculatory Interval: 333.9 ± 10.9 s
Male Rats [3]; 0.5 hours, N = 11, control 850.4 ± 99.2, significant (*)
  Ejaculatory Latency: 454.1 ± 78.4 s
Male Rats [3]; 8.0 hours, N = 11, control 2.6 ± 0.2, significant (*)
  Copulatory Rate: 3.9 ± 0.5 mounts/minute
Male Rats [3]; 8.0 hours, N = 11, control 349.5 ± 16.8, significant (*)
  Postejaculatory Interval: 320.1 ± 17.0 s
Male Rats [3]; 8.0 hours, N = 11, control 653.1 ± 61.7, significant (*)
  Ejaculatory Latency: 402.3 ± 59.7 s
Male Rats [3]; 24.0 hours, N = 15, control 2.0 ± 0.3, significant (*)
  Copulatory Rate: 2.8 ± 0.4 mounts/minute
Male Rats [3]; 24.0 hours, N = 15, control 422.4 ± 25.5
  Postejaculatory Interval: 391.7 ± 18.7 s
Male Rats [3]; 24.0 hours, N = 15, control 815.5 ± 64.6, significant (*)
  Ejaculatory Latency: 604.1 ± 68.4 s
Male Rats [3]; 48.0 hours, N = 11, control 2.4 ± 0.2, significant (*)
  Copulatory Rate: 2.5 ± 0.2 mounts/minute
Male Rats [3]; 48.0 hours, N = 11, control 364.8 ± 27.8, significant (*)
  Postejaculatory Interval: 365.4 ± 20.2 s
Male Rats [3]; 48.0 hours, N = 11, control 591.0 ± 33.8
  Ejaculatory Latency: 531.8 ± 60.6 s
